Results on 5 compounds are retold here after article PMC11097163 (ACS Omega, 2024).

Converted amounts (≈) assume the structure as drawn.

For data set [1] the following is noted: standards: high / moderate / low aqueous solubility; cited from earlier work.
The nature of data set [2]: Pharmacokinetics and oral bioavailability after oral and IV administration. Conditions: rat. It counts as in vivo.
Data set [3] addresses CYP2D6 (Homo sapiens, UniProt P10635). The data set is described as follows: CYP inhibition in HLM, CYP2D6. Conditions: IC50 (μM), dextromethorphan O-demethylation.
A short description of data set [4]: Plasma stability in rat plasma. It counts as in vitro ADME. The note with it: 5 µM, 2 h, 37°C.
A further data set has as its system CYP3A4. The data set is described as follows: Western blot of liver CYP3A4 protein expression. It counts as in vivo. The note with it: rat liver, crocetin with galantamine compared to only galantamine. A general note: In western blotting, separated proteins are transferred to a membrane and probed.
A short description of data set [5]: Intrabrain distribution after IV administration. It counts as in vivo. The note with it: rat, IV 10 mg/kg, 5 min after dosing.
Data set [6] relates to CYP2D6. The data set is described as follows: Western blot of liver CYP2D6 protein expression. The class given is in vivo. Conditions: rat liver, crocetin with donepezil compared to only donepezil.
Another data set in a line: GI permeability, PAMPA. It counts as in vitro ADME. The note with it: pH 7.4. A general note: PAMPA measures passive passage across an artificial lipid membrane.
For data set [7] the following is noted: systemic circulation after oral administration of crocin; cited from earlier work.
The next data set deals with T1, CYP2C8 (Homo sapiens, UniProt P10632).
T1 sequence (P10632 1-490): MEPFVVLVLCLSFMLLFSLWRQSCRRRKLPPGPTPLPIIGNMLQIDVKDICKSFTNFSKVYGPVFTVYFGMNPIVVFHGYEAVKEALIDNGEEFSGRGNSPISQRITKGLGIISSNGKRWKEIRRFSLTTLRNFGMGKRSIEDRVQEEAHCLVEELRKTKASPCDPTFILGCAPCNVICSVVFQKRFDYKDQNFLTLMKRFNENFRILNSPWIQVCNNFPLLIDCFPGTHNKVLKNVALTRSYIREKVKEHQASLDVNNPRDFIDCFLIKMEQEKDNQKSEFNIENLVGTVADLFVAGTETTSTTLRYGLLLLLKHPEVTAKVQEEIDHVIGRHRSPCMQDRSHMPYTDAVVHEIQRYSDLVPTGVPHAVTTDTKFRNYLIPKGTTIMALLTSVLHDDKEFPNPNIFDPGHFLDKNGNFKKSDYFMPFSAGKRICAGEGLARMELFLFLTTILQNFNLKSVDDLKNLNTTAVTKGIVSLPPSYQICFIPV
The data set is described as follows: CYP inhibition in HLM, CYP2C8. Conditions: IC50 (μM), amodiaquine N-deethylation. The class given is biochemical.

The subject of a further data set is Caco-2 barrier. Conditions: ref 50 (Lautenschlager et al.); cited from earlier work.
Data set [8] addresses P-gp (Homo sapiens, UniProt P08183). The data set is described as follows: P-gp inhibition, intracellular accumulation of Rh123 in LS180 cells. The class given is cell-based.
Data set [9] can be described thus: Metabolic stability in liver microsomes. The note with it: MLM, RLM, DLM, MkLM, HLM; 1 mg/mL protein, 5 µM, 30 min. The class given is in vitro ADME, human, monkey, dog, rat, mouse. A general note: Liver microsomes are vesicles of endoplasmic reticulum, rich in cytochrome P450 enzymes.
Another data set in a line: pKa, UV-metric method. It counts as physicochemical. The note with it: Britton-Robinson buffer, pH 1.81.
Data set [10] has as its system P-gp. The data set is described as follows: P-gp induction, intracellular accumulation of Rh123 in LS180 cells. It counts as cell-based.
Data set [11] can be described thus: Plasma protein binding, rapid equilibrium dialysis. The class given is in vitro ADME. The note with it: rat, pH 7.4.
Data set [12] can be described thus: Equilibrium solubility in biorelevant media, shake-flask method. The class given is physicochemical. Conditions: water, 37 °C, thermodynamic from solid.
Data set [13] is described as follows: Organ distribution after IV administration. It counts as in vivo. Conditions: rat, IV 10 mg/kg, 5 min after dosing.
Data set [14] in a line: RBC partitioning in rat blood and plasma. It counts as in vitro ADME. The note with it: fresh whole blood and reference plasma.
The nature of data set [15]: Chemical stability in SGF and SIF. It counts as physicochemical. The note with it: 37 °C, 10 µM.
Setting [16] is: female, Wistar, plasma, other: oral and intravenous.

Sequence of P-gp (Homo sapiens, UniProt P08183) (P08183 whole entry): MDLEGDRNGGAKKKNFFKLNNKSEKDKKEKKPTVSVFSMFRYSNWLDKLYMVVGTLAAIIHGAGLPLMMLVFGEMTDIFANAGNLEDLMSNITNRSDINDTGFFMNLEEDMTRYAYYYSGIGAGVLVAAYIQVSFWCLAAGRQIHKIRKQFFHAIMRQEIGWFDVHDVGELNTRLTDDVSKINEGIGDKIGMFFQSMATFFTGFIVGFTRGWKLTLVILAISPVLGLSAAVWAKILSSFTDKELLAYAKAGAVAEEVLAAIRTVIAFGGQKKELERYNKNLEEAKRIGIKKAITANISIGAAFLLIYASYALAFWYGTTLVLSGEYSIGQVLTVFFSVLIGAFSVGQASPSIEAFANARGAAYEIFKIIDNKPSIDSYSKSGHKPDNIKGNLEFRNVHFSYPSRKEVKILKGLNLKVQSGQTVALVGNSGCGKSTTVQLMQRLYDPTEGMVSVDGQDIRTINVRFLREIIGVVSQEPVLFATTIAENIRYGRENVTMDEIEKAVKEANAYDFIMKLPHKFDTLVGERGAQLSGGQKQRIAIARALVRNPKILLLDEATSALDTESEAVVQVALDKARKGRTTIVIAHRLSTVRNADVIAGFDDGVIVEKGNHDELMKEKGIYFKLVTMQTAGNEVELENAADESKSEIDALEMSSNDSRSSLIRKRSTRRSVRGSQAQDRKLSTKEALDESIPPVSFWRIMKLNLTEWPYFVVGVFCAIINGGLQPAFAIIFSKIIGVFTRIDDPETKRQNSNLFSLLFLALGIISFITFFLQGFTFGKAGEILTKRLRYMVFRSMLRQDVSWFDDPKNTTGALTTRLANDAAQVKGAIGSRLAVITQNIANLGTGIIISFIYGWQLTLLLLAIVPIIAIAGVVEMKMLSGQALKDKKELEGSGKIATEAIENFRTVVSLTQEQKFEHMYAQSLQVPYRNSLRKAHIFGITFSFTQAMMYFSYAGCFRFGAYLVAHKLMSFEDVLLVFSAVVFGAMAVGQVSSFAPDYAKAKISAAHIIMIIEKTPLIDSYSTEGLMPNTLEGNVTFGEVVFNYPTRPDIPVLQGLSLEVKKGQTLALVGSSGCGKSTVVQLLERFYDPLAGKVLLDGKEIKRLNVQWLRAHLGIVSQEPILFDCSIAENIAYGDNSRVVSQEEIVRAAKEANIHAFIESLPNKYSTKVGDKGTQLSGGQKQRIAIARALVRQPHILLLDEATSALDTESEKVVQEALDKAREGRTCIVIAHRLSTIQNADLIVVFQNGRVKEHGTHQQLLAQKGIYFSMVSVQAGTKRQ
Sequence of CYP2D6 (Homo sapiens, UniProt P10635) (P10635 whole entry): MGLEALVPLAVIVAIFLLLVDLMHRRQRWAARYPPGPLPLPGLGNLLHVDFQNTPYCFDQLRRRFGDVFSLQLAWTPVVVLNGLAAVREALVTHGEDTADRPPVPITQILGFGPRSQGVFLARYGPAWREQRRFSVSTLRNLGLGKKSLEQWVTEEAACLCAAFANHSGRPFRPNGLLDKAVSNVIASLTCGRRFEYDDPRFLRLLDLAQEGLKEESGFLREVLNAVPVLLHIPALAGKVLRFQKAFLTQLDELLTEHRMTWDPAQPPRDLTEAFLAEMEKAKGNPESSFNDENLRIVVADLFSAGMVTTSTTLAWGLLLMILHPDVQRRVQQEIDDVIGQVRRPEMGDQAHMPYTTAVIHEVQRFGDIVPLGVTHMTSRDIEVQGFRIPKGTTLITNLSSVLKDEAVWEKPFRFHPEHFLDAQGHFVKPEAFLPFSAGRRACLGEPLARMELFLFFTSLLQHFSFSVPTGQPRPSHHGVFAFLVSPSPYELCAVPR

With `COc1ccc(CCN2CCC(Nc3nc4ccccc4n3Cc3ccc(F)cc3)CC2)cc1` [astemizole], in data set [1], the “aqueous solubility (category of the standard)” value was less than 10 µg/mL.

With `CCCC1O[C@@H]2C[C@H]3[C@@H]4CCC5=CC(=O)C=C[C@]5(C)[C@H]4[C@@H](O)C[C@]3(C)[C@]2(C(=O)CO)O1` (stereo partly drawn) [budesonide], the “aqueous solubility (category of the standard)” value in data set [1] is 10 to 100 µg/mL.

As for `CC(/C=C/C=C(\C)C(=O)O)=C\C=C\C=C(C)\C=C\C=C(/C)C(=O)O` [crocetin], in data set [2] (setting [16]), the clearance is not above 16.7 mL/min/kg and the half-life (as a rule, the time in which the quantity being followed falls by half) was more than 2 h. Moreover, the maximum plasma concentration in [2] (oral 20 mg/kg) was 23 µM. Inhibition against CYP2D6 [3] was half-maximal at 20.4 µM (IC50). In data set [4], this compound registered a degradation in plasma of less than 5%. In addition, the “CYP3A4 protein expression (down-regulation)” value with CYP3A4 is on record as 0.61 fold. Besides, in data set [5], the “order of concentrations in brain parts” value is “cortex > cerebellum > hippocampus”. Also, in the data set on CYP2D6 [6], the “CYP2D6 protein expression (down-regulation)” value worked out at 0.73 fold. Further, the Papp – broadly, a coefficient for how fast a substance crosses the barrier – at 5 h, 5 μM in the data set “GI permeability, PAMPA” was 3.89 ×10⁻⁶ cm/s. In addition, the “exposure of crocetin relative to crocin” value in data set [7] is listed as 56–81 fold. For the same compound, at CYP2C8, the concentration for half-maximal inhibition (IC50) (usually the concentration that gives 50% inhibition) came to 35.3 µM. Moreover, the Papp with Caco-2 barrier was 2.6 ± 0.6 × 10^–5 cm/s. Also, on P-gp [8] (Rh123, 1 to 50 μM), the P-gp inhibitory activity result is recorded as “no marked P-gp inhibitory activity”. Moreover, the “remaining intact in liver microsomes” value in data set [9] is more than 83%. In the data set “pKa, UV-metric method”, the pKa (usually the negative logarithm of the acid dissociation constant) was 5.35. The P-gp induction in the data set on P-gp [10] (Rh123, 25–50 μM) is reported as 22–24%. Also, in [11], the free fraction (fraction unbound) (in general, the share of the substance not bound to proteins or other matrix) at 4 h, 5 µM was 0.03. Moreover, in data set [12], the solubility (in general, how much of the substance goes into solution per volume) at 1 h is 0.6 µg/mL (≈ 1.83 µM). In addition, the “order of concentrations in organs” value in data set [13] was “liver > lungs > heart > kidney > spleen > brain”. In [14], the blood plasma ratio at 0 min, 1000 nM came to 0.36 ± 0.01 and the blood plasma ratio at 60 min, 1000 nM was 0.39 ± 0.04. Moreover, the “intact (chemical stability)” value in data set [15] (SGF (pH 1.2), 2 h) was 72%. The “intact (chemical stability)” value in data set [15] (SIF (pH 6.8), 4 h) came to 68%.

With `CO[C@H]1/C=C/O[C@@]2(C)Oc3c(C)c(O)c4c(O)c(c(/C=N/N5CCN(C)CC5)c(O)c4c3C2=O)NC(=O)/C(C)=C\C=C\[C@H](C)[C@H](O)[C@@H](C)[C@@H](O)[C@@H](C)[C@H](OC(C)=O)[C@@H]1C` [rifampicin, reference compound], the “P-gp induction (decrease in intracellular accumulation of Rh123)” value in the data set with P-gp [10] (standard, 10 µM) was “significant induction of P-gp”.

On to `O[C@@H](COc1cccc2ncccc12)CN1CCN([C@@H]2c3ccccc3[C@@H]3[C@H](c4ccccc42)C3(F)F)CC1` [zosuquidar, reference compound], for which the “P-gp inhibition (increase in intracellular accumulation of Rh123)” value on P-gp [8] (standard, 10 µM) is given as “significant inhibition of P-gp”.
